Earlier results as cited in US20180318450A1, “ENHANCED SURGICAL VISUALIZATION OF VIABLE TISSUE WITH SELECTIVE DYE” (priority 2017, published 2018).
Starred links: 1 amine or outer side, 2 acyl side, 3 side chain; linkers in the order of their positions; H or OH if unused. Positions of bridges follow the written chain, without caps; N, C: chain ends. Non-standard residues stand in square brackets, D forms with d. Residues, ends and D or L forms follow the SMILES beside them. Trp(2-yl) = O=C([C@H](Cc1c([*:3])[nH]c2ccccc12)N[*:1])[*:2]; Leu(4R-OH,5-OH) = C[C@](O)(CO)C[C@H](N)C(=O)O; cisHyp = O=C(O)[C@@H]1C[C@H](O)CN1

Tested on: tumor proliferation
Conditions: toxin attached to C-terminus of ph low insertion peptide, cells in acidic environment

C[C@@H]1NC(=O)[C@H](C[C@@](C)(O)CO)NC(=O)[C@@H]2Cc3c([nH]c4ccccc34)SC[C@H](NC(=O)[C@@H]([C@H](C)O)NC1=O)C(=O)N1C[C@@H](O)C[C@H]1C(=O)N[C@@H](C)C(=O)N2 [phalloidin] (cyclo(A[dT]C[cisHyp]A[Trp(2-yl)][Leu(4R-OH,5-OH)]); thioether 3-6)
tumor proliferation: prohibited tumor proliferation
